# Where two headings read alike, the source gives them in different places.
# Columns and labels:
# 786-O-Hif-Luc cells = assay: Luciferase Assay; format: cell-based; details: 786-O-Hif-Luc cells, about 24 hours, read-out: Luciferase EC50
# Description: A pool of infected cells were then selected against 2 μg/mL of puromycin (P8833, Sigma) for 10 days followed by limited dilution to select single clones.
# Each concentration was tested in triplicate. After about 24 hours, luciferase activity was determined using ONE-Glo Luciferase Assay Reagent (E6110, Promega) following the manufacturer's recommended procedure. EC50 were calculated by using Dotmatics software.
# [1] = target: T1, HIF-2α HIS TAG-PASB Domain (Homo sapiens, UniProt Q99814); assay: HIF-2α Scintillation Proximity Assay (SPA); format: binding; details: 150 nM Compound 211 probe, 100 nM HIF-2α HIS TAG-PASB Domain; read-out: SPA IC50
# T1 construct: 100 nM HIF-2α HIS TAG-PASB Domain
# T1 sequence (Q99814 240-350 limits assumed): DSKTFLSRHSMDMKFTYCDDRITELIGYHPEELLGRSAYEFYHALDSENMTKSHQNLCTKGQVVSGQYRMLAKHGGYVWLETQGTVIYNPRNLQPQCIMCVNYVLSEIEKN
# Method in brief: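 IC50 values rest on percent inhibition, where the sample signal is scaled between high and low controls. Wells contain about 100 μL: compound dispensed as 2 μL of DMSO solution, 88 μL protein-probe mix and 10 μL of beads.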
# 786-0 cells = assay: VEGF ELISA Assay; format: cell-based; details: VEGFA concentration in cell culture medium, read-out: VEGF ELISA EC50
# [2] = Homo sapiens, 786-0, 786-0 cells
Compound,EC50 (786-O-Hif-Luc cells; 24 h),IC50 [1],EC50 (786-0 cells; [2]),EC50 (786-O-Hif-Luc cells),EC50 (786-0 cells; 786-0 cells),"EC50 (786-0 cells; Homo sapiens, 786-0 cells)"
"CS(=O)(=NC#N)c1ccc(Oc2cc(F)cc(C#N)c2)c2c1[C@H](O)C(F)(F)[C@@H]2F (single isomer, unassigned) [Compound 80]",12 nM,< 5 nM,17 nM,–,–,–
"CS(=O)(=NC#N)c1ccc(Oc2cncc(C#N)c2)c2c1[C@H](O)C(F)(F)[C@@H]2F (single isomer, unassigned) [Compound 85]",–,32 nM,–,114 nM,190 nM,–
"O=S(=O)(c1ccc(Oc2cncc(F)c2)c2c1[C@H](O)C(F)(F)C2)C(F)(F)F [Compound 73, (S)-2,2-difluoro-4-((5-fluoropyridin-3-yl)oxy)-7-((trifluoromethyl)sulfonyl)-2,3-dihydro-1H-inden-1-ol]",9 nM,< 5 nM,26 nM,–,–,–
"N#Cc1cc(F)cc(Oc2ccc3c(c2C(F)F)C(N)C(F)(F)S3(=O)=O)c1 (stereo not drawn) [Compound 136, 3-((3-Amino-4-(difluoromethyl)-2,2-difluoro-1,1-dioxido-2,3-dihydrobenzo[b]thiophen-5-yl)oxy)-5-fluorobenzonitrile]",–,< 5 nM,–,110 nM,–,200 nM

# — patent US10098878B2, “HIF-2α inhibitors for treating iron overload disorders” (The Board of Regents of the University of Texas System, priority 2014, dated 2018)
